Source: the kinase profiling compilation of Christmann-Franck et al. (2016)

Legend:
Assay in all cases: KINOMEscan competition binding
Conditions in all cases: compound 10.0 µM
DDR1 (human) = DDR1 (human) (UniProt Q08345)
MYLK (human) = MYLK (human) (UniProt Q15746)
STK32A (human) = STK32A (human) (UniProt Q8WU08)
TAOK2 (human) = TAOK2 (human) (UniProt Q9UL54)
MAP4K4 (human) = MAP4K4 (human) (UniProt O95819)
STK38 (human) = STK38 (human) (UniProt Q15208)
CAMK1D (human) = CAMK1D (human) (UniProt Q8IU85)
STK24 (human) = STK24 (human) (UniProt Q9Y6E0)
CLK4 (human) = CLK4 (human) (UniProt Q9HAZ1)
CSNK1G2 (human) = CSNK1G2 (human) (UniProt P78368)
BLK (human) = BLK (human) (UniProt P51451)
ULK3 (human) = ULK3 (human) (UniProt Q6PHR2)
HIPK1 (human) = HIPK1 (human) (UniProt Q86Z02)
MELK (human) = MELK (human) (UniProt Q14680)
RPS6KA1 KD2 (human) = RPS6KA1 KD2 (human) (UniProt Q15418)
PTK6 (human) = PTK6 (human) (UniProt Q13882)
CDK9 (human) = CDK9 (human) (UniProt P50750)
PRKCD (human) = PRKCD (human) (UniProt Q05655)
PKN1 (human) = PKN1 (human) (UniProt Q16512)
STK39 (human) = STK39 (human) (UniProt Q9UEW8)
STK32B (human) = STK32B (human) (UniProt Q9NY57)
PAK1 (human) = PAK1 (human) (UniProt Q13153)
KDR (human) = KDR (human) (UniProt P35968)
MAP4K2 (human) = MAP4K2 (human) (UniProt Q12851)
MAP3K9 (human) = MAP3K9 (human) (UniProt P80192)
MAP3K13 (human) = MAP3K13 (human) (UniProt O43283)
CLK1 (human) = CLK1 (human) (UniProt P49759)
CDKL3 (human) = CDKL3 (human) (UniProt Q8IVW4)
FGFR2 (human) = FGFR2 (human) (UniProt P21802)
BRSK2 (human) = BRSK2 (human) (UniProt Q8IWQ3)
CAMK2D (human) = CAMK2D (human) (UniProt Q13557)
MAPK13 (human) = MAPK13 (human) (UniProt O15264)
CDC2L2 (human) = CDC2L2 (human) (UniProt Q9UQ88)
GRK1 (human) = GRK1 (human) (UniProt Q15835)
PRKCQ (human) = PRKCQ (human) (UniProt Q04759)
MAP3K6 (human) = MAP3K6 (human) (UniProt O95382)
CHEK1 (human) = CHEK1 (human) (UniProt O14757)
HUNK (human) = HUNK (human) (UniProt P57058)
STK4 (human) = STK4 (human) (UniProt Q13043)
CDK15 (human) = CDK15 (human) (UniProt Q96Q40)

Sequence of STK24 (human) (Q9Y6E0 whole entry, looked up): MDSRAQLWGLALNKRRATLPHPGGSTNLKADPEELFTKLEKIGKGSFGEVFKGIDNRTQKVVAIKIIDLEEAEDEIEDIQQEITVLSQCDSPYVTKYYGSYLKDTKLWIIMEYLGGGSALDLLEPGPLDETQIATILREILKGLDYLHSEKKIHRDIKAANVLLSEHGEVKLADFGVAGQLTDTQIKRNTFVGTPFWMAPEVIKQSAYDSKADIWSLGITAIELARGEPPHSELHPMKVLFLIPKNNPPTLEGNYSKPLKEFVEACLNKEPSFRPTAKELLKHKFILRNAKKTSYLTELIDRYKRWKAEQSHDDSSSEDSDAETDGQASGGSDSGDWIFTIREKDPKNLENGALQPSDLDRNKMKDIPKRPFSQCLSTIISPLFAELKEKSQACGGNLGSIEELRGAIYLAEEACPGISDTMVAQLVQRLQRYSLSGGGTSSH
Sequence of CDK9 (human) (P50750 whole entry, looked up): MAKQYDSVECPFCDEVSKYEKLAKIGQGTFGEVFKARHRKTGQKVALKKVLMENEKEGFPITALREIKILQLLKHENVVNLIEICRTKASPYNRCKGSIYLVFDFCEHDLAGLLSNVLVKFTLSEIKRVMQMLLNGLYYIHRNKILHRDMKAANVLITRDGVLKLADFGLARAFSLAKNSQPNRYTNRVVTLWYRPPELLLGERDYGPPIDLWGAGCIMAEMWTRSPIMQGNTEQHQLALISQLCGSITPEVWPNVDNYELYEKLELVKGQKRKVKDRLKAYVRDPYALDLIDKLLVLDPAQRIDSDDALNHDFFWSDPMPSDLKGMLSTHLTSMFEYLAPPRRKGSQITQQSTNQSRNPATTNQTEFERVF
Sequence of PTK6 (human) (Q13882 whole entry, looked up): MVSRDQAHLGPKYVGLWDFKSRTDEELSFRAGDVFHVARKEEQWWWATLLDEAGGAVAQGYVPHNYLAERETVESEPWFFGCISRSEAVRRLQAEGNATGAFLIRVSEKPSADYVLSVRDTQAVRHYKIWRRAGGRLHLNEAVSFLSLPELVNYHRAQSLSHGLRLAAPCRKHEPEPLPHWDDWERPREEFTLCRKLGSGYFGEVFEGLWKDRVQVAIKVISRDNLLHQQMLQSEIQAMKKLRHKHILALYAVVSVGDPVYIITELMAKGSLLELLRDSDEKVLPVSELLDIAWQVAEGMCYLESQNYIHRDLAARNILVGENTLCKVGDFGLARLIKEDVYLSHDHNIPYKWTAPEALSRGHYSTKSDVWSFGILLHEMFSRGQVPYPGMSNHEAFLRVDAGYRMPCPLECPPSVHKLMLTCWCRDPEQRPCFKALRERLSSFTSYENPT
Sequence of CLK4 (human) (Q9HAZ1 whole entry, looked up): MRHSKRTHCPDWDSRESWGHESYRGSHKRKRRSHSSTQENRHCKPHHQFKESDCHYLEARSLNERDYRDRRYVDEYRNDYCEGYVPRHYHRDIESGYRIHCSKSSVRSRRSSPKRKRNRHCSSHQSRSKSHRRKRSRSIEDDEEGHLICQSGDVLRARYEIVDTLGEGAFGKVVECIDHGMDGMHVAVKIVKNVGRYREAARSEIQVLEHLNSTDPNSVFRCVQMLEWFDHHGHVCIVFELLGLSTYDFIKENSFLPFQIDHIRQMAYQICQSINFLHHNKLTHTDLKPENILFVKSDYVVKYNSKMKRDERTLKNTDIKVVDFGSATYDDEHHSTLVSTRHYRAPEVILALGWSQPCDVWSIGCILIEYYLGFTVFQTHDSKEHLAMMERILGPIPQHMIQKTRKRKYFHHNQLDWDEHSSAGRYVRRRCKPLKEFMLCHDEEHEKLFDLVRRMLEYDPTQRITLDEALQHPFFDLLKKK
Sequence of PRKCQ (human) (Q04759 whole entry, looked up): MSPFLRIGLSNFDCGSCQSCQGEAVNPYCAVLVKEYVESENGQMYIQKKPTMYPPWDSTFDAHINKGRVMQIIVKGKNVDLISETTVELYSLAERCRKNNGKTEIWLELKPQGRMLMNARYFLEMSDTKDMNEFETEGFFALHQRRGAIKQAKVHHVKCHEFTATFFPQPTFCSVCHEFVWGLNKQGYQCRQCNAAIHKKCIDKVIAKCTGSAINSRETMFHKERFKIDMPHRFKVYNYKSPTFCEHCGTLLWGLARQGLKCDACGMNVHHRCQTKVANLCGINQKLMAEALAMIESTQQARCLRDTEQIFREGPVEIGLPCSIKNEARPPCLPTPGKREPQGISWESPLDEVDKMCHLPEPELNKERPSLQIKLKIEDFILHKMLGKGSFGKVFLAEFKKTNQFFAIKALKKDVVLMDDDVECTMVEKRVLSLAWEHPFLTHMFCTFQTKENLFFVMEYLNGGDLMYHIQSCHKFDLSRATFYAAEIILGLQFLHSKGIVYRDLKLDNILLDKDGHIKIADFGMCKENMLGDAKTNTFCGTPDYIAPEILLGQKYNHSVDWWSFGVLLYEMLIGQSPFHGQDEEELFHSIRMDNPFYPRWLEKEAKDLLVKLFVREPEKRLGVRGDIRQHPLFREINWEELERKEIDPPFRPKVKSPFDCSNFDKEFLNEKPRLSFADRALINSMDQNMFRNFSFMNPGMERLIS
Sequence of CDC2L2 (human) (Q9UQ88 whole entry, looked up): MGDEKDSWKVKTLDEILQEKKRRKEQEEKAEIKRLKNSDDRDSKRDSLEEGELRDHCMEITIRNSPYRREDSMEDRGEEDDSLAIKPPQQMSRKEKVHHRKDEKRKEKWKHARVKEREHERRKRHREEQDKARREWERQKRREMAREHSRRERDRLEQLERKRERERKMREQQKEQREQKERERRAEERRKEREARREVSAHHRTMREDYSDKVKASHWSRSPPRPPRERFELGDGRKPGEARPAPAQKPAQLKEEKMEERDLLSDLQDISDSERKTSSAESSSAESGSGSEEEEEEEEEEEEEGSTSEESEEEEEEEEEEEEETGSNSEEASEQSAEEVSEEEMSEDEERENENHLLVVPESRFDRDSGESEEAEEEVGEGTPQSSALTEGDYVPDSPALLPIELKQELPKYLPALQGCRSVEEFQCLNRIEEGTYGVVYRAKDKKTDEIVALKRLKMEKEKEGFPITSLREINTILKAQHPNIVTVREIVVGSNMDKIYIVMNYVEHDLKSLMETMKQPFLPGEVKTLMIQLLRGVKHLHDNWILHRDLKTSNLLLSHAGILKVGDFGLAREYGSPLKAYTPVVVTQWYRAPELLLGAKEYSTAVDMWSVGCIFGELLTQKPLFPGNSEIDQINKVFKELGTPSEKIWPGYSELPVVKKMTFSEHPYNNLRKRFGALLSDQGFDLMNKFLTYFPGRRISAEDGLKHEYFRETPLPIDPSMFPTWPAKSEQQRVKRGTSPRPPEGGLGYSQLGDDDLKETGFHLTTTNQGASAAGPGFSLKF
Sequence of STK32B (human) (Q9NY57 whole entry, looked up): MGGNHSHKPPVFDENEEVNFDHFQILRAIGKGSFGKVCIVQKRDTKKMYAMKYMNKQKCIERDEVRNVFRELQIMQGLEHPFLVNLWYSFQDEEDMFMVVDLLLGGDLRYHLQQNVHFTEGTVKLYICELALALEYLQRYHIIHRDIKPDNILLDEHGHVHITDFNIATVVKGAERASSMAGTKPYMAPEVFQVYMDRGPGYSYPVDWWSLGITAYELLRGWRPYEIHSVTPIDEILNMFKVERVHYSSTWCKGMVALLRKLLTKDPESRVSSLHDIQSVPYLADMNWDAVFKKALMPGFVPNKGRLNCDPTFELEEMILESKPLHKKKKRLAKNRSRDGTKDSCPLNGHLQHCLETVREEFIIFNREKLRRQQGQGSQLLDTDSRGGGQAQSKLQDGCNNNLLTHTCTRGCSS
Sequence of MAPK13 (human) (O15264 whole entry, looked up): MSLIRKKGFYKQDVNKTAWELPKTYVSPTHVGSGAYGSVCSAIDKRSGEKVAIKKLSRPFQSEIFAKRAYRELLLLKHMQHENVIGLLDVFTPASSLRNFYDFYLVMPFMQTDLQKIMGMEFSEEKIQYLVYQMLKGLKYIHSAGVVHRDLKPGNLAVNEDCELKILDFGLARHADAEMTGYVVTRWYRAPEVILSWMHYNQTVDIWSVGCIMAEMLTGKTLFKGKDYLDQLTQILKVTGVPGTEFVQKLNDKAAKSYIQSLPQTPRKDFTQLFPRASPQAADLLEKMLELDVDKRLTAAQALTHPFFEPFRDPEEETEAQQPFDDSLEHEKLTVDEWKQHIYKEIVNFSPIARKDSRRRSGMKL
Sequence of RPS6KA1 KD2 (human) (Q15418 whole entry, looked up): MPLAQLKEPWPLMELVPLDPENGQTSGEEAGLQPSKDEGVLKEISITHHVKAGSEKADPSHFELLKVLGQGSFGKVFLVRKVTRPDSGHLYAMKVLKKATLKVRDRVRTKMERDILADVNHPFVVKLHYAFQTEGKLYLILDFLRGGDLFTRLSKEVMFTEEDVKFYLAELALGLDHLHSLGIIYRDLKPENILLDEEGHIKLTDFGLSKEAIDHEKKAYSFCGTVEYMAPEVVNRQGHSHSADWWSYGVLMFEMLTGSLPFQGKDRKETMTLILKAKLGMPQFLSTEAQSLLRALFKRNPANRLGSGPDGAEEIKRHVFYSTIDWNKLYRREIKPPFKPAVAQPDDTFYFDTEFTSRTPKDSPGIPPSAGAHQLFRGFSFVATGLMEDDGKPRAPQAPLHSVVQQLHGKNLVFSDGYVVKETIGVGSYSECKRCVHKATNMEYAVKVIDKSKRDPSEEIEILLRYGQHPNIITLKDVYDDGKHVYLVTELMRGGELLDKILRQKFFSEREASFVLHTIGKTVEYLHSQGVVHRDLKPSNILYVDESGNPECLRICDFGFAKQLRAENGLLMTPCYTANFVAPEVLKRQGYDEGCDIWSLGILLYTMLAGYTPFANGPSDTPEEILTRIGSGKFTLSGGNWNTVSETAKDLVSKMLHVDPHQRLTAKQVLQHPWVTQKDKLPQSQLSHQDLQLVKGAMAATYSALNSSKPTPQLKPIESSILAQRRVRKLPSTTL

Row | Structure (SMILES) | kinase still bound, per cent of control (DDR1 (human)) | kinase still bound, per cent of control (MYLK (human)) | kinase still bound, per cent of control (STK32A (human)) | kinase still bound, per cent of control (TAOK2 (human)) | kinase still bound, per cent of control (MAP4K4 (human)) | kinase still bound, per cent of control (STK38 (human)) | kinase still bound, per cent of control (CAMK1D (human)) | kinase still bound, per cent of control (STK24 (human)) | kinase still bound, per cent of control (CLK4 (human)) | kinase still bound, per cent of control (CSNK1G2 (human)) | kinase still bound, per cent of control (BLK (human)) | kinase still bound, per cent of control (ULK3 (human)) | kinase still bound, per cent of control (HIPK1 (human)) | kinase still bound, per cent of control (MELK (human)) | kinase still bound, per cent of control (RPS6KA1 KD2 (human)) | kinase still bound, per cent of control (PTK6 (human)) | kinase still bound, per cent of control (CDK9 (human)) | kinase still bound, per cent of control (PRKCD (human)) | kinase still bound, per cent of control (PKN1 (human)) | kinase still bound, per cent of control (STK39 (human)) | further results
1 | C=CC(=O)Nc1cc(-n2c(=O)ccc3cnc4ccc(-c5cn[nH]c5)cc4c32)ccc1C | 67% | 70% | 100% | 76% | 60% | 87% | 86% | 95% | 3% | 94% | 2.4% | 97% | 52% | 43% | 94% | 100% | 100% | 80% | 100% | 64% | kinase still bound, per cent of control (STK32B (human)): 100%; kinase still bound, per cent of control (PAK1 (human)): 100%; kinase still bound, per cent of control (KDR (human)): 50%; kinase still bound, per cent of control (MAP4K2 (human)): 9.4%; kinase still bound, per cent of control (MAP3K9 (human)): 86%; kinase still bound, per cent of control (MAP3K13 (human)): 84%; kinase still bound, per cent of control (CLK1 (human)): 0.4%; kinase still bound, per cent of control (CDKL3 (human)): 33%; kinase still bound, per cent of control (FGFR2 (human)): 94%; kinase still bound, per cent of control (BRSK2 (human)): 67%; kinase still bound, per cent of control (CAMK2D (human)): 36%; kinase still bound, per cent of control (MAPK13 (human)): 76%; kinase still bound, per cent of control (CDC2L2 (human)): 100%; kinase still bound, per cent of control (GRK1 (human)): 75%; kinase still bound, per cent of control (PRKCQ (human)): 100%; kinase still bound, per cent of control (MAP3K6 (human)): 75%; kinase still bound, per cent of control (CHEK1 (human)): 100%; kinase still bound, per cent of control (HUNK (human)): 86%; kinase still bound, per cent of control (STK4 (human)): 83%; kinase still bound, per cent of control (CDK15 (human)): 49%
2 | COc1cc2ncnc(-n3nc(-c4ccccn4)nc3N)c2cc1OC | 88% | 0.8% | 64% | 42% | 69% | 51% | 34% | 56% | 2.2% | 1.1% | 8.8% | 10% | 0.55% | 9.2% | 14% | 51% | 76% | 76% | 100% | 80% | kinase still bound, per cent of control (STK32B (human)): 100%; kinase still bound, per cent of control (PAK1 (human)): 70%; kinase still bound, per cent of control (KDR (human)): 52%; kinase still bound, per cent of control (MAP4K2 (human)): 43%; kinase still bound, per cent of control (MAP3K9 (human)): 70%; kinase still bound, per cent of control (MAP3K13 (human)): 96%; kinase still bound, per cent of control (CLK1 (human)): 0.6%; kinase still bound, per cent of control (CDKL3 (human)): 5.3%; kinase still bound, per cent of control (FGFR2 (human)): 76%; kinase still bound, per cent of control (BRSK2 (human)): 14%; kinase still bound, per cent of control (CAMK2D (human)): 55%; kinase still bound, per cent of control (MAPK13 (human)): 100%; kinase still bound, per cent of control (CDC2L2 (human)): 100%; kinase still bound, per cent of control (GRK1 (human)): 41%; kinase still bound, per cent of control (PRKCQ (human)): 100%; kinase still bound, per cent of control (MAP3K6 (human)): 64%; kinase still bound, per cent of control (CHEK1 (human)): 100%; kinase still bound, per cent of control (HUNK (human)): 41%; kinase still bound, per cent of control (STK4 (human)): 61%; kinase still bound, per cent of control (CDK15 (human)): 88%
